Data from article PMC4696656, “Insights into the Mechanism of Action of Bactericidal Lipophosphonoxins” (PLoS ONE, 2015).
Values after ≈ are worked out from the molar mass of the structure shown. Like-named read-outs stand apart in the source and are kept apart here.

Legend:
[1] = system: S. aureus MRSA 4591; assay: MIC, standard microdilution method; conditions: Staphylococcus aureus, 24 h
[2] = system: B. subtilis 168; assay: Selection for resistant strains, stepwise two-fold increased concentration; type: cell-based, Bacillus subtilis; conditions: 24 h cultures, two-fold increased concentration each transfer; rifampicin from 0.01 mg/L, DR5026 from 0.5 mg/L
Description: A) B. subtilis. […] Then, the growth of the culture was evaluated by OD600nm and an aliquot of the culture was transferred to a new tube with fresh medium and a two-fold increased concentration of the active compound. This template was followed until no growth was detected for DR5026 or until B. subtilis grew at 5 mg/L of rifampicin.

[3] = system: Caco-2 monolayers; assay: Transepithelial transport in Caco-2 monolayers; type: in vitro ADME; conditions: 3 h incubation
[4] = system: Enterococcus faecalis CCM 4224; assay: MIC, standard microdilution method; conditions: CCM4224, 24 h
[5] = system: Staphylococcus epidermidis 8700/B; assay: MIC, standard microdilution method; conditions: 24 h
[6] = Stability at different pH (LC-MS); type: physicochemical; conditions: pH 0.18, 5.00 and 8.80; 50 μM and 500 μM; room temperature and 37°C; 24 hours
Description: Stability experiments were carried out at two concentrations and three pH values. Concentrations were 500 μmol/l (50 μl of 10 mM stock solution were dissolved in buffers of specific pH to a final volume of 1 ml) and 50 μmol/l (10 μl of stock solution were dissolved in buffers of specific pH to a final volume of 2 ml); pH: 0.18 (0.5 M HCl), 5 (0.1M NH4Ac adjusted with acetic acid), and 8.8 (0.1M NH4Ac adjusted with NaOH). The experiments were conducted at room temperature and 37°C, respectively. Samples were injected onto HPLC machine at different time points to assess the levels of decomposition. Time points: 0.5; 1; 3.5; 24 hrs. HPLC analytical parameters: Method: 0–100% B in 5 min, 100% C in 15 min, hold to 20 min. A = 25 mM NH4Ac, B = 25 mM NH4Ac in 50% MeCN, C = MeCN. Column: PFP, 100 x 4.6 mm, 3 um. Injection: 10 μl for 500 μM. Injection: 50 μl for 50 μM. Detection: PDA 210–400 nm; MS TIC 200–800 m/z.

[7] = system: Streptococcus agalactiae; assay: Induction of resistance by repeated passages, MIC after each step; type: cell-based
[8] = Carboxyfluorescein leakage assay, LUV from erythrocyte lipids; type: biochemical, human; conditions: LPPO 0.8 mg/L, 60 μM phospholipid, 25°C
Description: After evaporation of the solvent in vaccuo at 40°C, the phospholipids were dissolved in chloroform, filtered through glass fiber filters (Whatman) and concentrated under a stream of nitrogen. The lipid samples were stored at -80°C and used for liposome preparation. Vesicles to be used in the carboxyfluorescein (CF) leakage assay were prepared by mixing the appropriate amount of lipids (1 mg/ml) with chloroform/methanol 2:1 (v/v). The solvent was subsequently evaporated under a nitrogen gas stream obtaining a thin film on the walls of a glass tube. […] The release of vesicle contents after adding LPPO solutions was evaluated by the increased fluorescence intensity of CF released into the milieu which we express as the percentage of leakage. […] Maximum release of CF fluorescence (F max) was induced by lysing the vesicles with 0.1% (v/v) Triton X-100. Fluorescence intensity was monitored in time (excitation at 480 nm, emission at 515 nm) at 25°C using FluoroMax-3 (Jobin Yvon, Horriba) spectrofluorometer. The following equation was used to calculate the percent of CF leakage: % CF leakage = [(F–F 0)/(F max−F 0)] × 100, where F is the actual fluorescence intensity and F 0 is the fluorescence intensity before addition of the permeabilizing agent. […]

[9] = read-out: MIC after induction step, step 1
[10] = read-out: MIC after induction step, step 2
[11] = read-out: MIC after induction step, step 3
[12] = read-out: MIC after induction step, step 4
[13] = read-out: MIC after induction step, step 5
[14] = read-out: MIC after induction step, step 6
[15] = read-out: MIC after induction step, step 7
[16] = read-out: MIC after induction step, step 8
[17] = read-out: MIC after induction step, step 9
[18] = read-out: MIC after induction step, step 10
[19] = read-out: MIC after induction step, step 11
[20] = read-out: MIC after induction step, step 12
[21] = read-out: MIC after induction step, step 13
[22] = read-out: MIC after induction step, step 14

For CCCCCCCCCCCCCCCCOP(=O)(CCN1C[C@@H](O)[C@H](O)C1)OC[C@H]1O[C@@H](n2ccc(=O)[nH]c2=O)[C@H](O)[C@@H]1O (stereo partly shown) [DR5026], which MIC [1] is on record?
The MIC was 25 to 50 µg/mL (≈ 37.8 to 75.6 µM).

What about the development of resistance [2] of the same molecule?
Its development of resistance is “failed to obtain cells that would grow at concentrations exceeding the MIC”.

What about the “compound in the Caco-2 cell lysate” value [3] of the same molecule?
Its value is “No compound was detected”.

What about the “compound at the basolateral (acceptor) side” value ([3]; apical to basolateral) of the same molecule?
Its value is “No compound was detected”.

What about the MIC [4] of the same molecule?
The MIC was 3.12 µg/mL (≈ 4.72 µM).

And the MIC [5]?
The MIC was 3.12 µg/mL (≈ 4.72 µM).

And the “stability (decomposition by LC-MS)” value [6]?
The value was “no detectable decomposition”.

What about the MIC [7, 9] of the same molecule?
The MIC was 3.1 µg/mL (≈ 4.68 µM).

What about the MIC [7, 10] of the same molecule?
Its MIC is 3.1 µg/mL (≈ 4.68 µM).

And the MIC [7, 11]?
The MIC was 3.1 µg/mL (≈ 4.68 µM).

And the MIC [7, 12]?
Its MIC is 3.1 µg/mL (≈ 4.68 µM).

What about the MIC [7, 13] of the same molecule?
Its MIC is 3.1 µg/mL (≈ 4.68 µM).

What about the MIC [7, 14] of the same molecule?
Its MIC is 3.1 µg/mL (≈ 4.68 µM).

And the MIC [7, 15]?
Its MIC is 6.2 µg/mL (≈ 9.37 µM).

And the MIC [7, 16]?
Its MIC is 6.2 µg/mL (≈ 9.37 µM).

And the MIC [7, 17]?
The MIC was 3.1 µg/mL (≈ 4.68 µM).

What about the MIC [7, 18] of the same molecule?
The MIC was 3.1 µg/mL (≈ 4.68 µM).

And the MIC [7, 19]?
Its MIC is 3.1 µg/mL (≈ 4.68 µM).

And the MIC [7, 20]?
The MIC was 6.2 µg/mL (≈ 9.37 µM).

What about the MIC [7, 21] of the same molecule?
Its MIC is 6.2 µg/mL (≈ 9.37 µM).

What about the MIC [7, 22] of the same molecule?
The MIC was 6.2 µg/mL (≈ 9.37 µM).

What about the “CF release, % of the maximum (Triton X-100)” value [8] of the same molecule?
Its value is 8%.

Which results are given for CCCCCCCCCCCCCCCCOCCCOP(=O)(CCN1C[C@@H](O)[C@H](O)C1)OC[C@H]1O[C@@H](n2ccc(=O)[nH]c2=O)[C@H](O)[C@@H]1O (stereo partly shown) [DR5047]?
MIC [1]: > 200 µg/mL; MIC [4]: 6.25 µg/mL (≈ 8.68 µM); MIC [5]: 3.12 µg/mL (≈ 4.34 µM); MIC [7, 9]: 6.2 µg/mL (≈ 8.61 µM); MIC [7, 10]: 6.2 µg/mL (≈ 8.61 µM); MIC [7, 11]: 6.2 µg/mL (≈ 8.61 µM); MIC [7, 12]: 6.2 µg/mL (≈ 8.61 µM); MIC [7, 13]: 6.2 µg/mL (≈ 8.61 µM); MIC [7, 14]: 6.2 µg/mL (≈ 8.61 µM); MIC [7, 15]: 3.1 µg/mL (≈ 4.31 µM); MIC [7, 16]: 6.2 µg/mL (≈ 8.61 µM); MIC [7, 17]: 6.2 µg/mL (≈ 8.61 µM); MIC [7, 18]: 6.2 µg/mL (≈ 8.61 µM); MIC [7, 19]: 6.2 µg/mL (≈ 8.61 µM); MIC [7, 20]: 6.2 µg/mL (≈ 8.61 µM); MIC [7, 21]: 6.2 µg/mL (≈ 8.61 µM); MIC [7, 22]: 6.2 µg/mL (≈ 8.61 µM); CF release, % of the maximum (Triton X-100) [8]: 4%
